According to US20090136968A1, “Novel in vitro methods for studying receptors recognizing volatile compounds” (Chemcom S. A., priority 2005, published 2009):

Legend:
mOR-I7 = biological target: T1, mOR-I7 (Mus musculus, UniProt Q9QWU6); assay: Novel olfactory functional assay (CCBSA), microplate calcium flux (Fluo4, FDSS) on HEK 293T overexpressing mOR-I7; assay type: cell-based; conditions: for hit / potential ligand of mOR-I7 in screening of 30 odorants: carrier fraction 4 (bOBP and BSA) incubated with 16 μl of 1M odorant, ratio mOR-I7 on Wt, standardized to 1 mM ATP
T1 construct: expressed in transfected cells; host or cells: HEK 293T
T1 sequence (Q9QWU6 1-327): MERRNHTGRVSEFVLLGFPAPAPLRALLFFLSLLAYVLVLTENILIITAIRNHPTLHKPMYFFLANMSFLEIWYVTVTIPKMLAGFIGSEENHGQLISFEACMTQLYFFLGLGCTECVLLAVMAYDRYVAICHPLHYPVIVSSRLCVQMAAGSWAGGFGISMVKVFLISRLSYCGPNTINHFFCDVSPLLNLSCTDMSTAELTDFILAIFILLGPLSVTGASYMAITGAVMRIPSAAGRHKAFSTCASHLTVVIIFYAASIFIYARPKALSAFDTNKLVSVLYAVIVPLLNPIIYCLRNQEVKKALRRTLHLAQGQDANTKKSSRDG
Experimental: (§1) A solution of BP including SA, OBP and/or olfactory mucus (see concentration in the text) was incubated in the presence of odorant in a sealed flask for 16 hours at 4° C. (FIG. 3A). Such incubated-BP solution was then used as tested complex on olfactory receptor-expressing cells. Prior to incubation with such complex, cells were incubated for 1 hour with 4 μM Fluo4-AM (Molecular Probe) in the presence of 1 mM probenecid, and then rinsed twice with Fluo4-AM free HBSS buffer. After injection of odorant-BP complex on OR expressing cells, calcium flux was followed by measuring fluorescence at 520 nm ([…]) on FDSS, a plate reader from Hamamatsu Photonics K.K. (Japan) at 25° C.
In an attempt to be closer to physiological process of olfaction and thereof to increase specificity and sensitivity of the cell-based assay described above, a novel olfactory functional assay was developed. Most of the time, mammalian smells volatile odorant molecules. However in the cell-based assay described above as in most cell-based assays, odorant molecules were injected into aqueous buffer. Such injection may lead to formation of micelles that can alter efficacy and specificity of ligands. Therefore a cell-based assay was developed focusing an a better solubilization of odorants. In summary, in a sealed flask, bovine olfactory mucus was incubated in the presence of an odorant (FIG. 3A). It was hereby tested if an odorant would be trapped and solubilized in that fluid. Thereafter, such solubilized odorant was injected onto cultured-cells overexpressing an olfactory receptor. Activation of this receptor could then be followed by conventional assay including fluorescent (FIGS. 3 B and C) and luminescent calcium assays.
For this novel assay, mOR-I7 activation was assessed by octanal. A constant volume of olfactory mucus was incubated in the presence of increasing amount of octanal ranging from 0 to 16 μl of a solution of 1M octanal. After 16 hours incubation at 4° C., bovine olfactory mucus was injected on HEK 293T overexpressing mOR-I7. Calcium flux was followed with Fluo4 on FDSS, a plate reader from Hamamatsu Photonics K.K. (Japan).
Capacity of fraction 4 to fulfil the role of odorant solubilizator was assessed in the newly proposed assay. Screening of 30 odorant molecules (FIG. 5A) was performed on HEK 293T wild type (FIG. 5C) or overexpressing mOR-I7 (FIG. 5B). Fraction 4 was incubated overnight at 4° C. […] These odorants led to at least one fold more activation of HEK 293T overexpressing mOR-I7 than the wild type counterpart. They can be classified into two groups. One group (FIG. 5 E (a) to (e)) gathers molecules that fit the olfactophore 1 depicted in FIG. 5 E (j). They are schematically made of 2 electronegative poles distanced by 6 carbons. They all contain a 6-8 carbon chain ended by an electronegative group as depicted by olfactophore 2 represented in FIG. 5 E (k).
However this fraction 4 contained two major proteins, bOBP and BSA. Thus the results of said Example could in this approach not rule out any implication of BSA into fraction 4 properties. Therefore the capacity of BSA to solubilize and thereof to enhance the efficacy of odorants in the novel cell based olfactory functional assay as described by the present invention has been tested. To be as close as possible to BSA concentration observed in fraction 4. BSA concentration was set up at 5×10^−6 M for the following experiments (marked by an arrow on FIG. 6 G). Fraction 4 and a solution of fatty acid-free BSA were incubated at 4° C. for 16 hours in the presence of increasing volume of 1M octanal. So-incubated solutions were then applied onto HEK 293T wt or overexpressing mOR-I7. Calcium-flux was followed on a plate reader (Hamamatsu Photonics K.K., Japan) with fluo4 as fluorescent dye (FIG. 6 A to F). […] Such phenomenon is usually observed in such fluorescence assay when increasing ligand concentrations are injected. […]

HEK 293T wt = assay: CCBSA microplate calcium flux on HEK 293T wild type cells (specificity control); assay type: cell-based
Experimental: as §1
For this novel assay, mOR-I7 activation was assessed by octanal. A constant volume of olfactory mucus was incubated in the presence of increasing amount of octanal ranging from 0 to 16 μl of a solution of 1M octanal. […] Calcium flux was followed with Fluo4 on FDSS, a plate reader from Hamamatsu Photonics K.K. (Japan).
However this fraction 4 contained two major proteins, bOBP and BSA. […] Calcium-flux was followed on a plate reader (Hamamatsu Photonics K.K., Japan) with fluo4 as fluorescent dye (FIG. 6 A to F). […] Such phenomenon is usually observed in such fluorescence assay when increasing ligand concentrations are injected.

[1] = fraction 4 or BSA solution incubated with increasing volume of 1M octanal

In the case of CCCCCCCC=O [octanal], the “hits / potential ligands of mOR-I7 through the 4 screenings” value (mOR-I7; BSA as carrier, calcium flux and cAMP screenings together) is reported as “hits”, the “ligands of mOR-I7 in two independent calcium flux screenings of 30 odorants” value (mOR-I7; BSA as carrier, standardized to 100 μM ATP) is reported as “consistent” and the “fluorescence intensity (calcium flux)” value (mOR-I7; bovine olfactory mucus incubated with 0 to 16 μl of 1M octanal, 16 hours 4° C.) is reported as “proportional to the volume of odorant”. For the same compound, the “hit / potential ligand of mOR-I7 in screening of 30 odorants” value (mOR-I7) was “potential ligands of mOR-I7”, the “hit / potential ligand of mOR-I7 in screening of 30 odorants” value (mOR-I7; listed as 1-octanal) was “hits” and the “calcium flux in HEK 293T overexpressing mOR-I7” value (mOR-I7; fraction 4 or BSA solution (5×10^−6 M) incubated with increasing volume of 1M octanal, kinetics over 300 seconds) was “calcium flux was detected”. The “dependence of fluorescence intensity on amount of odorant” value (mOR-I7; [1]) was “proportional to the amount of odorant”, the “time required to reach maximum fluorescence” value (mOR-I7; [1]) was “decreased when odorant volume increased” and the “cell response on wt cells” value (HEK 293T wt; bovine olfactory mucus incubated with octanal) was “no cell response”. For the same compound, the “fluorescence in HEK 293T wt” value (HEK 293T wt; fraction 4 or BSA solution (5×10^−6 M) incubated with 1M octanal) was “no fluorescence appeared”.
